Molecules are shown by their SMILES.

For data set [1], the target named is T1, human adenosine A2A receptor (Homo sapiens, UniProt P29274).
T1 construct: expressed in transfected cells; host or cells: CHO cells, semliki forest virus expression system; membrane preparation
In words: Human adenosine A2A receptor [3H]-SCH-583261 binding assay (SPA, CHO cell membranes). The conditions noted are these: [3H]-SCH-583261 1 nM; membranes of CHO cells expressing the recombinant receptor; Ki by Cheng-Prussoff equation; read-out: hA2 (pKi) (converted). How it is done: Human Adenosine A2A Receptor
The human adenosine A2A receptor was recombinantly expressed in chinese hamster ovary (CHO) cells using the semliki forest virus expression system. Cells were harvested, washed twice by centrifugation, homogenised and again washed by centrifugation. The final washed membrane pellet was suspended in a Tris (50 mM) buffer containing 120 mM NaCl, 5 mM KCl, 2 mM CaCl2 and 10 mM MgCl2 (pH 7.4) (buffer A). The [^3H]-SCH-583261 (Dionisotti et al., 1997, Br J Pharmacol 121, 353; 1 nM) binding assay was carried out in 96-well plates in the presence of 2.5 μg of membrane protein, 0.5 mg of Ysi-poly-1-lysine SPA beads and 0.1 U adenosine deaminiase in a final volume of 200 μl of buffer A. Non-specific binding was defined using xainthine amine congener (XAC; 2 μM). Compounds were tested at 10 concentrations from 10 μM-0.3 nM. All assays were conducted in duplicate and repeated at least two times. Assay plates were incubated for 1 hour at room temperature before centrifugation and then bound ligand determined using a Packard Topcount scintillation counter. IC50 values were calculated using a non-linear curve fitting program and Ki values calculated using the Cheng-Prussoff equation.

T1 sequence (P29274 whole entry): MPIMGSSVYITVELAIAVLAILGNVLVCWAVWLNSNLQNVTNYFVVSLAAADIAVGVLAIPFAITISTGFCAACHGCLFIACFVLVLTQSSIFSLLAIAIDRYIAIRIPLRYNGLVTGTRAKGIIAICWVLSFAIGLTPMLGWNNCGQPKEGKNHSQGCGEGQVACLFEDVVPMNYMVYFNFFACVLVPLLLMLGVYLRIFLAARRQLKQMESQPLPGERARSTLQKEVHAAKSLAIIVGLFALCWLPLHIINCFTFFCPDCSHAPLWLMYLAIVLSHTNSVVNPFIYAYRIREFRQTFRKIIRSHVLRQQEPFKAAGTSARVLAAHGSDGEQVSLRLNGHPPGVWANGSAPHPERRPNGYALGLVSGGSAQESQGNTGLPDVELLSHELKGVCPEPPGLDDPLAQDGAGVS

A word on the melting point: it is the temperature of the solid-liquid transition. Compound `COc1ccc(N2CCOCC2)c2sc(NC(=O)c3ccnc(CN(C)C(C)=O)c3)nc12` [Example 108, 2-[(Acetyl-methyl-amino)-methyl]-N-(4-methoxy-7-morpholin-4-yl-benzothiazol-2-yl)-isonicotinamide] came in with a melting point of 228 to 230 °C.
On to `CCOCCN(C)Cc1cc(C(=O)Nc2nc3c(OC)ccc(N4CCOCC4)c3s2)ccn1` [Example 104, 2-{[(2-Ethoxy-ethyl)-methyl-amino]-methyl}-N-(4-methoxy-7-morpholin-4-yl-benzothiazol-2-yl)-isonicotinamide], for which the melting point is 159 to 160 °C. In addition, in data set [1], the Ki is 3.16 nM.
Turning to `COc1ccc(N2CCOCC2)c2sc(NC(=O)c3ccnc(Cn4ccnc4C)c3)nc12` [Example 107, N-(4-Methoxy-7-morpholin-4-yl-benzothiazol-2-yl)-2-(2-methyl-imidazol-1-ylmethyl)-isonicotinamide], the melting point lay in the range of 264 to 265 °C.
With `CCSCc1cc(C(=O)Nc2nc3c(OC)ccc(N4CCOCC4)c3s2)ccn1` [Example 103, 2-Ethylsulfanylmethyl-N-(4-methoxy-7-morpholin-4-yl-benzothiazol-2-yl)-isonicotinamide], the melting point was in the range of 158 to 159 °C. In addition, the Ki in data set [1] was 1.58 nM.
In the case of `CCCCNCc1cc(C(=O)Nc2nc3c(OC)ccc(N4CCOCC4)c3s2)ccn1` [Example 52, 2-Butylaminomethyl-N-(4-methoxy-7-morpholin-4-yl-benzothiazol-2-yl)-isonicotinamide], the Ki in data set [1] is 1.58 nM.
As to `COc1ccc(N2CCOCC2)c2sc(NC(=O)c3ccnc(N4C[C@@H]5C[C@H]4CO5)c3)nc12` [Example 31, N-(4-Methoxy-7-morpholin-4-yl-benzothiazol-2-yl)-2-{(1S,4S)-2-oxa-5-aza-bicyclo[2.2.1]hept-5-yl}-isonicotinamide], the Ki in data set [1] was 1 nM.
For the compound `COC(=O)N(C)Cc1cc(C(=O)Nc2nc3c(OC)ccc(N4CCOCC4)c3s2)ccn1` [Example 65, [4-(4-Methoxy-7-morpholin-4-yl-benzothiazol-2-yl-carbamoyl)-pyridin-2-ylmethyl]-methyl-carbamic Acid Methyl Ester], the Ki in data set [1] was 3.16 nM.
Regarding `COc1ccc(N2CCOCC2)c2sc(NC(=O)c3ccnc(NCCc4ccccn4)c3)nc12` [Example 8, N-(4-Methoxy-7-morpholin-4-yl-benzothiazol-2-yl)-2-(2-pyridin-2-yl-ethylamino)-isonicotinamide], in data set [1], the Ki was 1.78 nM.
Take `COc1ccc(N2CCOCC2)c2sc(NC(=O)c3ccnc(NCCNC(C)=O)c3)nc12` [Example 15, 2-(2-Acetylamino-ethylamino)-N-(4-methoxy-7-morpholin-4-yl-benzothiazol-2-yl)-isonicotinamide]: in data set [1], the Ki is 1.91 nM.
Regarding `COc1ccc(C(=O)Nc2nc3c(OC)ccc(N4CCOCC4)c3s2)cn1` [Example 35, 6-Methoxy-N-(4-methoxy-7-morpholin-4-yl-benzothiazol-2-yl)-nicotinamide], the Ki in data set [1] was 2 nM.
The compound `COC[C@@H]1CCCN1Cc1cc(C(=O)Nc2nc3c(OC)ccc(N4CCOCC4)c3s2)ccn1` [Example 105, (S)-2-(2-Methoxymethyl-pyrrolidin-1-ylmethyl)-N-(4-methoxy-7-morpholin-4-yl-benzothiazol-2-yl)-isonicotinamide] showed a melting point of 110 to 113 °C.
As to `COc1ccc(N2CCOCC2)c2sc(NC(=O)c3ccnc(N(C)Cc4ccccc4)c3)nc12` [Example 96, 2-(Benzyl-methyl-amino)-N-(4-methoxy-7-morpholin-4-yl-benzothiazol-2-yl)-isonicotinamide], in data set [1], the Ki was 1.62 nM.
Same read-out and setting: as for `COc1ccc(N2CCOCC2)c2sc(NC(=O)c3ccnc(N(C)CCN(C)C)c3)nc12` [Example 99, 2-[(2-Dimethylamino-ethyl)-methyl-amino]-N-(4-methoxy-7-morpholin-4-yl-benzothiazol-2-yl)-isonicotinamide], the figure is 0.603 nM.
For `COc1ccc(N2CCOCC2)c2sc(NC(=O)c3ccnc(OCCN4CCCC4=O)c3)nc12` [Example 17, N-(4-Methoxy-7-morpholin-4-yl-benzothiazol-2-yl)-2-[2-(2-oxo-pyrrolidin-1-yl)-ethoxy]-isonicotinamide], in data set [1], the Ki is 2.34 nM.
Still for that read-out and setting: as for `COc1ccc(N2CCOCC2)c2sc(NC(=O)c3ccc(NCc4ccccn4)nc3)nc12` [Example 40, N-(4-Methoxy-7-morpholin-4-yl-benzothiazol-2-yl)-6-[(pyridin-2-ylmethyl)-amino]-nicotinamide], the figure is 1.02 nM; as for `COc1ccc(N2CCOCC2)c2sc(NC(=O)c3ccnc(N4CC(O)C4)c3)nc12` [Example 74, 2-(3-Hydroxy-azetidin-1-yl)-N-(4-methoxy-7-morpholin-4-yl-benzothiazol-2-yl)-isonicotinamide], 1.35 nM; as for `COc1ccc(N2CCOCC2)c2sc(NC(=O)c3ccnc(C4CCCCC4)c3)nc12` [Example 24, 2-Cyclohexyl-N-(4-methoxy-7-morpholin-4-yl-benzothiazol-2-yl)-isonicotinamide], 2.24 nM.
As for `COc1ccc(N2CCOCC2)c2sc(NC(=O)c3ccnc(CN4CCC(O)CC4)c3)nc12` [Example 102, 2-(4-Hydroxy-piperidin-1-yl-methyl)-N-(4-methoxy-7-morpholin-4-yl-benzothiazol-2-yl)-isonicotinamide], the melting point stood at 125 °C. In addition, in data set [1], the Ki is 2 nM.
`COc1ccc(N2CCOCC2)c2sc(NC(=O)c3ccnc(NC4CCCC4)c3)nc12` [Example 89, 2-Cyclopentylamino-N-(4-methoxy-7-morpholin-4-yl-benzothiazol-2-yl)-isonicotinamide]: in data set [1], the Ki was 1.48 nM.
The same measure, in the same setting: as for `COc1ccc(N2CCOCC2)c2sc(NC(=O)c3ccnc(N4CCC4)c3)nc12` [Example 26, 2-Azetidin-1-yl-N-(4-methoxy-7-morpholin-4-yl-benzothiazol-2-yl)-isonicotinamide], the figure is 0.955 nM; as for `COc1ccc(N2CCOCC2)c2sc(NC(=O)c3ccnc(OCc4ccccn4)c3)nc12` [Example 6, N-(4-Methoxy-7-morpholin-4-yl-benzothiazol-2-yl)-2-(pyridin-2-ylmethoxy)-isonicotinamide], 1.15 nM.
Turning to `COC[C@H]1CCN(Cc2cc(C(=O)Nc3nc4c(OC)ccc(N5CCOCC5)c4s3)ccn2)C1` [Example 106, (S)-2-(3-Methoxymethyl-pyrrolidin-1-ylmethyl)-N-(4-methoxy-7-morpholin-4-yl-benzothiazol-2-yl)-isonicotinamide], the melting point was in the range of 93 to 96 °C.

For the origin of these results see patent publication US6620811B2, “Isonicotin- and nicotinamide derivatives of benzothiazoles” (Hoffmann-La Roche Inc., priority 2001, dated 2003).
